# Measured values: PMC6471062, “Suppression of the Ubiquitin Pathway by Small Molecule Binding to Ubiquitin Enhances Doxorubicin Sensitivity of the Cancer Cells” (Molecules, 2019)
# Key:
# [1] = test system: H1299 cells; assay: Luminogenic caspase activity assay (Caspase Glo 3/7), H1299; format: cell-based; conditions: 10 µM CR or 5 µM NSC697923 with Dox
# Experimental: (§1) Figure 7 CR enhances Dox sensitivity of cancer cells. (a,b) Enhancement of Dox-induced apoptosis of cancer cells by CR treatment. Dox–induced apoptosis of H1299 (a) and HCT116 (b) was quantified by colorimetric cell viability after treating 10 µM CR for 12 h followed by 12h treatment of Dox (0.0–5.0 µM). […] Caspase activity was quantified by luminogenic caspase activity assay. […] All error bars represent the standard deviation from at least four independent experiments. Statistical significance was calculated by the Student’s t-test (** p < 0.01, *** p < 0.001).
# (§2) Cell viability assays were performed as described previously. For the caspase assays, the media were removed, and cells were lysed in 200 µL lysis buffer containing 50 µL Caspase Glo 3/7 solution and incubated for 15 min. Results were observed by measuring the luminescence signal using KOMM-Nr (Berthold Technologies, Bad Wildbad, Germany) and normalized with the total protein concentration measured by the Bradford assay. […]
# (§3) Figure S8. NSC697923 enhances Dox sensitivity of cancer cells. (a, b) Effect of NSC697923 to cancer cells’ viability in Dox treatment . Dox–induced cell death of H1299 ( a) and HCT116 ( b) was quantified by colorimetric cell viability assay after treating 5 µM NSC697923 for 12 h followed by 12h treatment of Dox (0.0 […]
# NSC697923. Caspase activity was quantified by luminogenic caspase activity assay. […]
# [2] = test system: HCT116 cells; assay: Dox-induced cell death, colorimetric cell viability, HCT116; format: cell-based; conditions: 10 µM CR or 5 µM NSC697923 12 h, then Dox 1.25–5.0 μM 12 h
# Experimental: as §1, §2, §3
# (§4) NSC697923. Caspase activity was quantified by luminogenic caspase activity assay. All error bars represent the standard deviation from at least 4 independent experiments. *, P<0.05; **, P<0.01; ***, P<0.001.
# [3] = biological target: USP5 (Homo sapiens); assay: Deubiquitination assay, cleavage of GST-Ubiquitin-HA by USP5 (SDS-PAGE band intensity); format: biochemical
# Chain of USP5 (Homo sapiens) (P45974 2-858, other chains not shown): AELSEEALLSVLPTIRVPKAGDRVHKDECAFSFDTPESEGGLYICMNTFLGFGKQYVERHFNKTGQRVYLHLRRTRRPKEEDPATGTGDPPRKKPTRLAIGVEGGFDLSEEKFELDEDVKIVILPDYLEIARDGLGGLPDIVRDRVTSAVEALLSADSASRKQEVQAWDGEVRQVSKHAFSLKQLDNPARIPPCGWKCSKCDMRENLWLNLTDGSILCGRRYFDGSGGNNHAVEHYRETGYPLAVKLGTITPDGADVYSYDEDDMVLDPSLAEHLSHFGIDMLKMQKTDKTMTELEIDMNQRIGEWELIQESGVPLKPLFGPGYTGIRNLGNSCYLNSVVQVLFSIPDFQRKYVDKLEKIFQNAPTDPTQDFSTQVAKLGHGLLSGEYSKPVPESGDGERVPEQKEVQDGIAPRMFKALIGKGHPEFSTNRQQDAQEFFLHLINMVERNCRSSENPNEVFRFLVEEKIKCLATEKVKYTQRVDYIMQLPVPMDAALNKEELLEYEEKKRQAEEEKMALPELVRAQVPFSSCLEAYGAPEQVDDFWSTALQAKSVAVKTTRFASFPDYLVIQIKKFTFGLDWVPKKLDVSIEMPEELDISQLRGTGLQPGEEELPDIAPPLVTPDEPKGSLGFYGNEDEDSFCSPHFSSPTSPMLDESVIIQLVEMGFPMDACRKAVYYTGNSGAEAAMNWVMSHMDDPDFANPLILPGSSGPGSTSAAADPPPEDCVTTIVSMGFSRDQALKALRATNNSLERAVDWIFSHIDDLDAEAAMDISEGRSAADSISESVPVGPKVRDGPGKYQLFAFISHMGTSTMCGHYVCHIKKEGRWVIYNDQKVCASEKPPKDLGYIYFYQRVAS
# Experimental: For in vitro ubiquitination assays, 500 µM of ubiquitin was used for each ubiquitination reaction as described previously, in the absence or presence of 50–500 µM of CR. […] The generation of GST-ubiquitin from GST-Ubiquitin-HA as the mobility shifts were analyzed on 12.5% SDS-PAGE visualized by Coomassie blue staining. Band intensities were quantified by ImageJ [55] and used to generate the IC50 curves (log inhibitor vs. normalized response with variable slope) by GraphPad Prism version 6.0 for Windows (GraphPad Software, San Diego, CA, USA, www.graphpad.com).
# [4] = biological target: ubiquitin (Homo sapiens, UniProt P0CG47); assay: Intrinsic fluorescence quenching assay of ubiquitin; conditions: 50 µM ubiquitin, 0–500 µM compound, ex 274 nm / em 305 nm; read-out: Kd, dissociation constant upon binding to ubiquitin
# Experimental: Intrinsic fluorescence quenching assays were performed as described previously. Briefly, intrinsic fluorescence quenching of ubiquitin by indicated compounds was observed by measuring the excitation and emission wavelength at 274 nm and 305 nm respectively of the mixture of 50 µM purified ubiquitin and 0–500 µM compound. Data were fitted to nonlinear regression curves with the equation described previously. F = −∆ε·[PC] + Fo(3) b = (Po + Co + Kd)(4) c = Po·Co(5) [PC] = [b − (b^2 − 4·c)^1/2]/2(6) where Fo and F are the normalized fluorescence intensity of the mixture of ubiquitin without the compound and with different concentrations of the compound, respectively. ∆ε is a difference in the extinction coefficient of the compound between their free and complex forms. [PC] is the concentration of protein/compound complex. Po and Co are the added concentration of ubiquitin and the compound, respectively in each experiment. Kd is the dissociation constant.
# [5] = test system: H1299 cells; assay: Total ubiquitination state of non-Dox-treated cells (immunoblot, immunofluorescence); format: cell-based; conditions: H1299, 1.0 and 10 μM CR, 12 h
# Experimental: Cells were seeded in the SPL 4 wells cell culture chamber slide 24 h before experiment. Cells were treated with an indicated compound for an indicated time. The cells were fixed with 4% formaldehyde for 15 min followed by three times of PBS washing. Cells were permeabilized by incubation with PBS containing 0.5% Triton-X100 and 5% FBS for 30 min, and then blocked with blocking buffer (PBS, 5% FBS, 0.3% Triton X-100) for 1.5 h. Subsequently, cells were incubated with primary antibody at 1/200 dilution in blocking buffer overnight and then washed with blocking buffer five times (5 min each) before incubation with fluorescence-conjugated secondary antibody at 1/200 dilution in blocking buffer for 1 h. Cells were then washed with blocking buffer five times (5 min each) before incubation with DAPI for 10 min and three times washing with PBS. Slides were covered with the coverslip in the presence of mounting solution (cat # 475904, MOWIOL) and subjected to confocal imaging. Images acquired in confocal imaging were subjected to fluorescence intensity analysis using ImageJ [55]. Fluorescence signal representing a particular ubiquitin chain level was analyzed and normalized with the intensity of DAPI. Data were analyzed using GraphPad Prism version 6.0 for Windows with two tail t-test for statistical data analysis. page 6: Figure S6. Effect of CR on the ubiquitination state of none-treated cells. […]
# [6] = test system: H1299 cells; assay: Dox-induced cell death, colorimetric cell viability, H1299; format: cell-based; conditions: 10 µM CR or 5 µM NSC697923 12 h, then Dox 1.25–5.0 μM 12 h
# Experimental: as §1
# as §2, with “assay. Data were analyzed using GraphPad Prism version 6.0 for Windows with two tail t-test for statistical data analysis” for “assay.”
# as §3, §4
smiles,measurement,setting,value
"Nc1c(/N=N/c2ccc(-c3ccc(/N=N/c4cc(S(=O)(=O)O)c5ccccc5c4N)cc3)cc2)cc(S(=O)(=O)O)c2ccccc12 [CR, Congo red]",Effect on caspase activity of Dox-treated H1299 cells,[1],Enhanced caspase activity
same,"Effect on Dox-induced cell death, HCT116",[2],significantly enhanced Dox-induced cell death
same,IC50,[3],13.4 ± 2.64 µM
same,Kd,[4],14.4 ± 1.27 µM
same,Effect on total ubiquitination of normal (non-Dox-treated) cells,[5],slight accumulation of the polyubiquitin chains
same,"Effect on Dox-induced cell death, H1299",[6],significantly enhanced Dox-induced cell death
